Legend:
ENL target genes = test: RT-qPCR of ENL target genes in MOLM13 cells; assay type: cell-based; settings: MOLM13 cells, 0.5, 1, 2, 4 and 8 μM for 24 h
Method: MOLM13 cells were treated with LQ076-122 (FIG. 14A) and LQ081-108 (FIG. 14B) at 0.5, 1, 2, 4, and 8 μM for 24 h. […] RT-qPCR analysis was performed to detect the mRNA levels of selected ENL target genes.
Total RNA was extracted using the RNeasy Plus kit (Qiagen) and reverse-transcribed using the iScript cDNA Synthesis kit (Bio-Rad). RT-qPCR was performed using the Power SYBR Green PCR Master Mix (Applied Biosystems) on the CFX96 Real-Time PCR system (Bio-Rad). Gene expressions were calculated following normalization to 18s rRNA amounts using the comparative cycle threshold (Ct) method.

[1] = test system: ENL-dependent MV4; 11 cells; test: Cell viability (CellTiter-Glo), MV4; 11 cells; assay type: cell-based; settings: 11 cells, 0.5, 1, 2 and 4 μM for 72 h
In short: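 MV4;11 cells (ENL-dependent) were seeded at 2×10^5 cells/mL and exposed to compound or DMSO, mostly for 72 h, with some runs at 3 or 6 days. Concentrations ranged from 10 nM to 10 μM depending on the run. Viability was read by CellTiter-Glo luminescence and normalized to DMSO.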

MV4; 11-Luc cells = test: MV4; 11 disseminated xenograft model, bioluminescence imaging; assay type: in vivo; settings: NSG mice with MV4, 100 mg/kg twice daily IP, three cycles (4 treatment days, 2 resting days)
Method: Immuno-deficient NSG mice were irradiated and transplanted with 5×10^5 MV4; 11-Luc cells through tail-vein injections. Ten days after transplantation, mice (n=5) were treated with 100 mg/kg LQ076-122 or vehicle twice daily through IP injection in cycles. Each cycle contains 4 treatment days followed by 2 resting days. Day 0 is the time that the treatment started. Leukemia progression was monitored by bioluminescence imaging at different time points upon LQ076-122 or vehicle treatment (FIG. 18A). The mean radiances of bioluminescence signal were quantified in FIG. 18B.
Immunodeficient NOD.Cg-Prkdc^scidIl2rg^tm1wil/SzJ (NSG) mice at 6-8 weeks of age were produced at the Van Andel Institute Vivarium and Transgenic Core using breeders purchased from the Jackson laboratory. Mice were pretreated with acidified water and antibiotics for a week before a sublethal dose of total body irradiated (2 Gy). Then mice were transplanted with 0.5×10^6 MV4; 11-Luc cells through tail-vein injection. ENL degrader treatment was started ten days after transplantation with the successful engraftment confirmed by bioluminescence imaging. Mice were randomly assigned to two groups (n=5) and treated with IP injections of either ENL degrader LQ076-122 (100 mg/kg, twice daily) or vehicle. […] Leukemia progression in each animal was monitored by bioluminescence imaging after each treatment cycle. […]

## Cc1ncsc1-c1ccc(CNC(=O)[C@@H]2C[C@@H](O)CN2C(=O)[C@@H](NC(=O)CCCCCCCCCCNC(=O)c2ccc(C(=O)Nc3ccc4[nH]c(CN5CCC[C@@H]5C)nc4c3)cc2)C(C)(C)C)cc1 [LQ076-122, N^1-(11-(((S)-1-((2S,4R)-4-hydroxy-2-((4-(4-methylthiazol-5-yl)benzyl)carbamoyl)pyrrolidin-1-yl)-3,3-dimethyl-1-oxobutan-2-yl)amino)-11-oxoundecyl)-N^4-(2-(((S)-2-methylpyrrolidin-1-yl)methyl)-1H-benzo[d]imidazol-5-yl)terephthalamide]
ENL target genes
  ENL target gene expression (mRNA levels): reduced ENL target gene expression in a concentration-dependent manner
[1]
  suppression of cell growth (relative cell viability): selectively suppressed cell growth
MV4; 11-Luc cells
  leukemia progression: significantly inhibited leukemia progression

— patent US20230391765A1, “HETEROBIFUNCTIONAL COMPOUNDS AS DEGRADERS OF ENL” (ICAHN SCHOOL OF MEDICINE AT MOUNT SINAI, priority 2020, published 2023)
